Test system: IMC ascites tumor
Test: Concomitant treatment with bleomycin and spermidine on IMC ascites tumor, survival
Assay type: in vivo, CDF1 mice
Protocol: The pharmacological effects of spermidine will be illustrated by reference to the following experimental examples, in which spermidine was administered as its phosphate dissolved in physiological saline.
(c) 1×10^6 IMC cancer cells were transplanted into CDF1 mice by intraperitoneal injection (Day 0). Bleomycin (5 mg/kg) was administered once daily for 5 consecutive days, and spermidine (5 mg/kg) was administered a total of 10 times on alternative days. The effect of concomitant treatment with spermidine and the anticancer drug was evaluated by considering the number of days that the mice survived.

bleomycin [reference compound]
Survival rate on Day 60 (bleomycin (5 mg/kg) alone): 0/10 | Survival period (bleomycin (5 mg/kg) alone, once daily for 5 consecutive days): 31.2 ± 9.4 days | Increase of life span (bleomycin (5 mg/kg) alone, control = 100): 176% | life span increase compared with the control group (bleomycin alone): 76%

— US4559362A, “Immunopotentiator” (Zaidan Hojin Biseibutsu Kagaku Kenkyu Kai, priority 1982, dated 1985)
